US6812246B2, “Aminoflavone compounds, compositions, and methods of use thereof” (The United States of America as represented by the …, priority 2000, dated 2004)
Values after ≈ are worked out from the molar mass of the structure shown. Read-outs that look alike come from different tables or passages of the source.

Experiments:
[1] = Visual solubility evaluation in buffer at fixed concentration of 5 mg/mL; type: physicochemical; details: for solubility: aqueous buffer, water solubility determined visually at fixed concentration of 5 mg/mL
Experimental: This Example illustrates the desirable solubility characteristics of the aminoflavone compounds of the present invention. In Table 2 below, the water solubility of compounds 1a-d of Table 1 are set forth at different pH with a citrate or phosphate buffer, as indicated. Solubility was determined visually at a fixed concentration of 5 mg/mL.

[2] = Akama et al., cited from earlier work
[3] = test system: panel of 60 different human tumor cell lines; test: NCI 60 cell-line human tumor screen (sulforhodamine B, 48 hour incubation); type: cell-based; details: FIG. 1B; several human cancer cell lines, particularly breast (MCF7), ovarian (OVCAR-5), renal (CAKI-1), colon (SW-620)
Experimental: The NCI screen consists of a panel of 60 different human tumor cell lines against which compounds are tested over a defined range of concentrations to determine the relative degree of growth inhibition or cytotoxicity against each cell line. The design and operation of the screen is such that for each compound tested, both the absolute and relative sensitivities of individual cell lines comprising the screen are sufficiently reproducible that a characteristic profile or “fingerprint” of cellular response is generated. Compounds that are active in the NCI screen show pronounced differential tumor growth-inhibitory and/or cytotoxic effects to the diverse cell lines comprising the 60 cell-line panel. The degree of differential response between the most and least sensitive lines typically may be relatively small (e.g., 2-10 fold), or occasionally as great as 3-4 orders of magnitude. […]
In the screening assay, each agent is tested over a broad concentration range against every cell line in the panel. […] Test compounds are evaluated at five 10-fold dilutions. […] Optical densities are measured on automated plate readers, followed by computerized data acquisition, processing, storage, and availability for display-and analysis. […]

[4] = pH 3, citrate buffer, read-out: Visual solubility, pH 3
[5] = pH 5, citrate buffer, read-out: Visual solubility, pH 5
[6] = pH 7, phosphate buffer, read-out: Visual solubility, pH 7
[7] = pH 3, citrate buffer, 5 mg/mL, visual

| solubility [1, 4] [µg/mL] | solubility [1, 5] [µg/mL] | solubility [1, 6] [µg/mL] | solubility at pH 3 (text summary of Table 2) [1, 7] | solubility at pH 5 (text summary of Table 2) ([1]; pH 5, citrate buffer, 5 mg/mL, visual) | SMILES | solubility in ethanol ([2]; ethanol, J. Med. Chem., at 2067) [µg/mL] | solubility in water ([2]; water, J. Med. Chem., 41, 2056-2067 (1998)) | tumor growth-inhibiting activity (GI50 mean-graph) [3] |
| --- | --- | --- | --- | --- | --- | --- | --- | --- |
| > 5000 | < 5000 | < 5000 | fully soluble | – | Cc1c(F)c(N)c2c(=O)cc(-c3ccc(NC(=O)[C@@H](N)CCCCN)c(F)c3)oc2c1F [Compound 1a, 5-amino-6,8-difluoro-2-(3-fluoro-4-[(L-lysyl)amino]phenyl]-7-methyl-4H-1-benzopyran-4-one] | – | – | demonstrated tumor growth-inhibiting activity |
| > 5000 | < 5000 | < 5000 | fully soluble | – | Br.Br.Br.Cc1c(F)c(N)c2c(=O)cc(-c3ccc(NC(=O)C(N)CCCNC(=N)N)c(F)c3)oc2c1F (stereo not shown) [Compound 1b, 5-amino-2-[4-[[2-amino-5-guanidinopentanoyl]amino]-3-fluorophenyl]-6,8-difluoro-7-methyl-4H-1-benzopyran-4-one, trihydrobromide] | – | – | – |

The remaining lines, values behind:

| SMILES | solubility [1, 4] [µg/mL] | solubility [1, 5] [µg/mL] | solubility [1, 6] [µg/mL] | solubility at pH 3 (text summary of Table 2) [1, 7] | solubility at pH 5 (text summary of Table 2) ([1]; pH 5, citrate buffer, 5 mg/mL, visual) | solubility in ethanol ([2]; ethanol, J. Med. Chem., at 2067) [µg/mL] | solubility in water ([2]; water, J. Med. Chem., 41, 2056-2067 (1998)) | tumor growth-inhibiting activity (GI50 mean-graph) [3] |
| --- | --- | --- | --- | --- | --- | --- | --- | --- |
| Cc1c(F)c(N)c2c(=O)cc(-c3ccc(NC(=O)CN(C)C)c(F)c3)oc2c1F [Compound 1c, 5-amino-6,8-difluoro-7-methyl-2-[4-(dimethylamino)acetamido-3-fluorophenyl]-4H-1-benzopyran-4-one] | < 5000 | < 5000 | < 5000 | – | – | – | – | – |
| Nc1ccc(-c2cc(=O)c3c(N)c(F)cc(F)c3o2)cc1F [5,4′-diamino-6,8,3′-trifluoroflavone] | – | – | – | – | – | 1200 (≈ 3.92 mM) | less than 0.2 μg/mL | – |
| Cc1c(F)c(NC(=O)CN(C)C)c2c(=O)cc(-c3ccc(NC(=O)CN(C)C)c(F)c3)oc2c1F [Compound 1d, 6,8-difluoro-7-methyl-5-(dimethylamino)acetamido-2-[4-(dimethylamino)acetamido-3-fluorophenyl]-4H-1-benzopyran-4-one] | > 5000 | > 5000 | < 5000 | fully soluble | fully soluble | – | – | – |
